Values joined by “and” are separate entries in the source; they are usually repeats but may differ in a detail not shown here. Identical values can stand only once. “Also recorded” adds a separate entry of the source.
Tests used:
[1] = test system: P. cynomolgi sporozoite-infected rhesus macaques (hypnozoites, relapse); experiment: Radical cure in P. cynomolgi sporozoite-infected rhesus macaques; type: in vivo, Plasmodium cynomolgi; settings: group PQ-RC
Description: Sporozoites were harvested from P. cynomolgi-infected mosquitoes, washed with phosphate-buffered saline (PBS), and diluted to 100,000 sporozoites (spz)/ml in PBS. One-milliliter aliquots of sporozoites were prepared and injected into monkeys via intravenous (i.v.) injection.
(§1) Monkeys were treated according to the schedule shown in Table 1 (stratification of treatment groups is given in the supplemental material). During treatment, monkeys were weighed daily and received the compound via gavage, followed by gastric feeding (weight change during treatment is shown in Table S6 in the supplemental material). Monkeys in the prophylaxis groups (groups 691-proph and 599-proph) were treated ∼20 min after the i.v. sporozoite injection. The other monkeys were treated when all the monkeys in the experiment (except those in the prophylaxis group) were blood-stage patent (at day 11 p.i.). To kill the blood-stage parasites, all monkeys received a 5-day treatment of 7.5 mg/kg of body weight of chloroquine (CQ) (intramuscular [i.m.] injection), during compound dosing. KDU691 was formulated in 0.5% methylcellulose and 0.5% Tween 80 in water. LMV599 was formulated as a solid dispersion in a solution containing 5.6% (wt/wt) Tween 80–44.4% hydroxypropyl methylcellulose (HPMC) E3–38.9% Soluplus–11.1% vitamin E D-alphatocopheryl polyethylene glycol 1000 succinate (TPGS).
Parasitemia was closely monitored by thin-film analysis. Animals were trained to present for thigh pricks, which was followed by a reward. Thin-film slides were stained with 20% Giemsa stain, and at least 50 fields (±20,000 erythrocytes [RBCs]) were analyzed with a bright-field microscope (×1,200 magnification). As soon as all monkeys other than the prophylactic treatment groups were blood-stage positive, treatment was started as indicated above (Table 1). After the last day of compound dosing, the absence of blood-stage parasites was confirmed by thin smears. From day 23 p.i., monkeys were monitored daily for relapses. The KDU691 radical-cure (group 691-RC) treatment and control groups were monitored until the first relapse. The LMV599 control (group 599-C), radical-cure (group 599-RC), and PQ radical-cure (group PQ-RC) treatment groups were monitored until the second relapse or until day 100 p.i. (whichever came first). At the end of the study, monkeys that had relapsed received a 14-day primaquine treatment, with a final check 2 weeks after the last primaquine dose.
P. cynomolgi sporozoite production
A monkey was infected with […] P. cynomolgi M strain blood stage parasites, thawed from a first passage stock (i.e. blood stage parasites from a monkey infected with P. cynomolgi M strain sporozoites). For each batch of sporozoites needed, a single monkey was infected with P. cynomolgi blood stage parasites.
At day 11 and 12 post infection 9 mL infected blood was collected into a Lithium-heparinised tube. The blood was kept at 38°C and fed approximately 500 three to five days old female Anopheles stephensi mosquitoes Sind-Kasur strain Nijmegen (Nijmegen University Medical Centre St Radboud, Department of Medical Microbiology) using a glass feeder system as described by Ponnudurai et al.. After the second bleed, the monkey was cured by three daily intramuscular injections of 7.5 mg/kg chloroquine, monitored for parasite clearance 24 days after chloroquine treatment and returned to colony.
Mosquitoes were kept in climate chambers at 25 °C and 80% humidity and were fed 5% D -glucose on cotton pads daily. Seven days after feeding on the infected rhesus blood, oocyst numbers were determined in midguts of ten individuals, using 1% mercurochrome stain. Mosquitoes were given a second (uninfected) blood meal immediately afterwards to promote sporozoite maturation and invasion of the salivary glands. Sporozoites were isolated from the P. cynomolgi infected mosquitoes around day16 after the infected blood meal.
In vivo monkey infection and treatment procedures […]

[2] = Clinical chemistry, hematology, weight and clinical observation of treated monkeys; type: in vivo, rhesus macaques (Macaca mulatta)
Description: as §1
Blood samples were collected for clinical evaluation and pharmacokinetic (PK) analysis (see Table S2 in the supplemental material).
When the first relapse was observed, monkeys of the KDU691 experiment were radically cured with primaquine (PQ)/CQ (oral administration of 1.8 mg/kg PQ for 14 days together with i.m. administration of 7.5 mg/kg CQ for the first five days of PQ treatment) to cure both blood stage and liver stage parasites, […]
The monkeys of the LMV599/PQ experiment were cured with a five day CQ treatment (7.5 mg/kg, i.m. administration) at the first relapse and were monitored until the second relapse after which they were cured with CQ (7.5 mg/kg, intramuscular (i.m.) for five days) plus PQ (1.8 mg/kg for 14 days).
Table S2: PK and clinical blood sampling schedule in monkeys.
Groups are named 691 for KDU691 and 599 for LMV599 treatment groups, followed by -C for control group (no compound), -proph for prophylactic treatment (treated immediately after infection), and -RC for radical cure treatment (treated when blood stage positive). […]
the face and chest areas were very yellow. Therefore the 691-RC group (treated from d11 to d15 pi) was monitored by daily clinical chemistry analysis during dosing to be compared with untreated 691-C. […]
sampling of the single dose prophylaxis group at day 0, 1, 7 and 100. The lack of aberrant clinical […]
as radical cure compound, during which also clinical sampling was performed daily. a: only clinical chemistry samples were taken. *: t = 24 sample was taken only on the 1st day of dosing.
Group name Clin. chem PK sampling PK time points
Hematology (h post dosing)
691-proph 1st and 5th day of dosing t = 0, 1, 4, 6 and 24*
691-RC Dailya 1st and 5th day of dosing t = 0, 1, 4, 6 and 24* […]
599-RC Daily 1st and 4th day of dosing t = 0, 1, 2, 4 and 24
Clinical chemistry and hematology
For the clinical analysis serum from 1 mL of clotted blood was analysed using the Cobas Integra 400 plus fully automated chemistry analyser. The following clinical parameters were determined: Alkaline phosphatase; Alanine Aminotransferase; Albumin: Aspartate aminotransfeasr; Bilirubin; Calcium; Cholesterol; Creatine kinase; Creatinine; C-reactive protein: Iron; Phosphate; Gamma-glutamyl transpeptidase; Glucose; Hemoglobin; Potassium; Lactate dehydrogenase; Sodium; Total protein; Urea Haematological parameters were determined from 1 mL EDTA-blood with a Sysmex XT-2000iV automated system. The following hematological parameters were determined: Basophilic granulocytes; Eosinophilic granulocytes; Erythrocytes; Hematocrit; Leucocytes; Leucocyte differentiation; Lymphocytes; Mean corpusculair hemoglobin; Mean corpusculair hemoglobin concentration; Mean corpusculair volume; Neutrophilic granulocytes; Red cell distribution width; Thrombocytes […]
Liver tissue samples were excised, dipped in PBS, gently blotted with absorbent paper, dried, weighed and stored at -20 °C until further analysis. […]

[3] = test system: P. cynomolgi hypnozoites in primary rhesus hepatocytes; set-up: method as in PMID 24366744; settings: P. cynomolgi in vitro liver-stage assay; read-out: IC50 against hypnozoites; cited from earlier work
[4] = test system: P. cynomolgi developing EEFs (liver schizonts) in primary rhesus hepatocytes; set-up: method as in PMID 24366744; settings: P. cynomolgi in vitro liver-stage assay; read-out: IC50 against developing EEFs; cited from earlier work
[5] = group PQ-RC, 1.8 mg/kg, % of weight at d0

COc1cc(NC(C)CCCN)c2ncccc2c1 (stereo not drawn) [PQ, primaquine]
Day p.i. to first relapse ([1]; 1.8 mg/kg oral for 5 days from day 11 p.i. plus CQ, individual monkeys, ND = not detected up to day 100 p.i., 1.8 mg/kg): 47 day p.i. and 68 day p.i. | animals radically cured ([1]; 1.8 mg/kg oral for 5 days, monitored up to 100 days p.i., 1.8 mg/kg): two out of four; also recorded: two were completely cured | Day p.i. to second relapse ([1]; 1.8 mg/kg oral for 5 days, individual monkeys, ND = not detected up to day 100 p.i.): 100 day p.i. | day p.i. to first relapse, mean ± SD of the relapsing animals ([1]; 1.8 mg/kg oral for 5 days, only two of the four animals relapsed, delay P = 0.000237): 57.5 ± 14.8 day p.i. | Day p.i. to primary parasitemia ([1]; individual monkeys, baseline, before dosing started): 9 day p.i. and 10 day p.i. and 11 day p.i. | Weight change d1 [2, 5]: -0.8% | Weight change d2 [2, 5]: -1.2% | Weight change d3 [2, 5]: -2.6% | Weight change d4 [2, 5]: -2.9% | mean weight loss ([2]; primaquine treatment, 1.8 mg/kg for 5 days, control 2.7%): 2.9% | IC50 [3]: 840 nM | IC50 [4]: 370 nM

From publication PMC4862498, “PI4 Kinase Is a Prophylactic but Not Radical Curative Target in Plasmodium vivax-Type Malaria Parasites” (Antimicrobial Agents and Chemotherapy, 2016)
